Laboratory results published in DBAASP.
Converted amounts (≈) assume the structure as drawn. “And” between values parts separate entries of the source, which are not always exact repeats. Equal entries are not always repeated.

Experiments:
Test in all cases: ≥ marks a high value that may be exact or a test limit, other limits are often not marked, values filed in µg/mL are converted to µM
[1] = test system: Escherichia coli ATCC 25922
[2] = test system: Staphylococcus aureus ATCC 29213
[3] = test system: Pseudomonas aeruginosa ATCC 27853
[4] = test system: Staphylococcus aureus ATCC 25923

| SMILES | MIC [1] | MIC [2] [µM] | MIC [3] [µM] | MIC [4] |
| --- | --- | --- | --- | --- |
| CC[C@H](C)[C@H](NC(=O)[C@H](CCCN=C(N)N)NC(=O)[C@H](CCC(N)=O)NC(=O)[C@@H](NC(=O)[C@@H](NC(=O)[C@H](CCCN=C(N)N)NC(=O)[C@H](CCCCN)NC(=O)[C@H](C)N)[C@@H](C)CC)C(C)C)C(=O)N[C@@H](CCCCN)C(=O)N[C@@H](CC(=O)O)C(=O)N[C@@H](Cc1ccccc1)C(=O)N[C@@H](CC(C)C)C(=O)N[C@@H](CCCN=C(N)N)C(=O)O [AKRIVQRIKDFLR] | 10 µM (≈ 16.4 µg/mL) | > 40 |  |  |
| C[C@H](NC(=O)[C@H](Cc1ccccc1)NC(=O)[C@H](C)NC(=O)[C@H](Cc1ccccc1)NC(=O)[C@H](CCCCN)NC(=O)[C@H](C)NC(=O)[C@H](Cc1ccccc1)NC(=O)[C@H](CCCCN)NC(=O)[C@H](CCCCN)NC(=O)[C@H](C)NC(=O)[C@H](Cc1ccccc1)NC(=O)[C@H](CCCCN)NC(=O)[C@H](CCCCN)NC(=O)[C@H](Cc1ccccc1)NC(=O)[C@H](CCCCN)NC(=O)[C@H](CCCCN)NC(=O)[C@H](C)NC(=O)[C@H](Cc1ccccc1)NC(=O)[C@H](CCCCN)NC(=O)[C@H](CCCCN)NC(=O)[C@H](C)NC(=O)[C@@H](N)Cc1ccccc1)C(=O)N[C@@H](Cc1ccccc1)C(N)=O [FAKKFAKKFKKFAKKFAKFAFAF] | 1.44 µM (≈ 4 µg/mL) |  | 1.44 (≈ 4 µg/mL) | 1.44 µM (≈ 4 µg/mL) |
| CC[C@H](C)[C@H](NC(=O)[C@H](CCCN=C(N)N)NC(=O)[C@H](CCC(N)=O)NC(=O)[C@@H](NC(=O)[C@@H](NC(=O)[C@H](CCCN=C(N)N)NC(=O)[C@H](CCCCN)NC(=O)[C@@H](N)Cc1ccccc1)[C@@H](C)CC)C(C)C)C(=O)N[C@@H](CCCCN)C(=O)N[C@@H](CC(=O)O)C(=O)N[C@@H](CCC(N)=O)C(=O)N[C@@H](CC(C)C)C(=O)N[C@@H](CCCN=C(N)N)C(=O)O [FKRIVQRIKDQLR] | 10 µM (≈ 17 µg/mL) | > 40 |  |  |
| CC[C@H](C)[C@H](NC(=O)[C@H](CCCCN)NC(=O)[C@H](CCCCN)NC(=O)[C@@H](NC(=O)[C@@H](NC(=O)[C@H](CCCCN)NC(=O)[C@H](Cc1ccccc1)NC(=O)[C@H](CC(C)C)NC(=O)CN)[C@@H](C)CC)[C@@H](C)CC)C(=O)N[C@@H](C)C(=O)N[C@@H](CCCCN)C(=O)N[C@@H](CO)C(=O)N[C@@H](Cc1ccccc1)C(N)=O [GLFKIIKKIAKSF] | 16.7 µM and 33.5 µM |  |  |  |
| CC[C@H](C)[C@H](NC(=O)CNC(=O)[C@H](C)NC(=O)[C@@H](NC(=O)[C@H](CC(N)=O)NC(=O)[C@H](CCCCN)NC(=O)[C@H](C)NC(=O)[C@H](C)NC(=O)CNC(=O)[C@H](CCCCN)NC(=O)[C@@H](NC(=O)[C@@H](NC(=O)[C@H](CC(=O)O)NC(=O)[C@H](CC(C)C)NC(=O)[C@H](CC(C)C)NC(=O)[C@H](CC(C)C)NC(=O)CN)[C@@H](C)O)C(C)C)C(C)C)C(=O)N[C@@H](CC(C)C)C(=O)N[C@@H](CC(C)C)C(=O)N[C@@H](CC(N)=O)C(=O)N[C@@H](CCCCN)C(=O)N[C@@H](CC(C)C)C(=O)N[C@@H](CCCCN)C(=O)N[C@H]1CSSC[C@@H](C(=O)O)NC(=O)[C@H](CC(=O)O)NC(=O)CNC(=O)[C@H]([C@@H](C)O)NC(=O)[C@H](CCSC)NC(=O)[C@H](CCCCN)NC1=O [GLLLDTVKGAAKNVAGILLNKLKCKMTGDC] | 4.05 µM (≈ 12.5 µg/mL) |  |  |  |
| CC[C@H](C)[C@H](NC(=O)[C@@H](NC(=O)[C@H](CC(=O)O)NC(=O)[C@H](CC(C)C)NC(=O)[C@H](CC(C)C)NC(=O)[C@H](CCC(N)=O)NC(=O)CNC(=O)[C@H](C)NC(=O)[C@H](CC(C)C)NC(=O)[C@H](CC(N)=O)NC(=O)[C@H](CCCCN)NC(=O)[C@H](C)NC(=O)[C@H](C)NC(=O)[C@H](CC(N)=O)NC(=O)[C@H](CCCCN)NC(=O)[C@@H](NC(=O)[C@@H](NC(=O)[C@H](CC(=O)O)NC(=O)[C@H](CCSC)NC(=O)[C@H](CC(C)C)NC(=O)CN)[C@@H](C)O)C(C)C)[C@@H](C)O)C(=O)N[C@@H](CCCCN)C(=O)N[C@H]1CSSC[C@@H](C(=O)O)NC(=O)CNC(=O)[C@H]([C@@H](C)O)NC(=O)[C@H](CCSC)NC(=O)[C@H](CCCCN)NC1=O [GLMDTVKNAAKNLAGQLLDTIKCKMTGC] | 30 µM (≈ 88.1 µg/mL) |  |  |  |
| CC[C@H](C)[C@H](NC(=O)[C@H](CCCCN)NC(=O)[C@H](CO)NC(=O)[C@H](C)NC(=O)[C@H](Cc1c[nH]c2ccccc12)NC(=O)CN)C(=O)NCC(=O)N[C@H](C(=O)N[C@@H](CCC(N)=O)C(=O)N[C@@H](CC(C)C)C(=O)NCC(=O)N[C@@H](CCCCN)C(=O)N[C@@H](CCSC)C(=O)N[C@@H](C)C(=O)N[C@@H](CCCCN)C(=O)N[C@H](C(=O)NCC(=O)N[C@@H](CC(C)C)C(=O)N[C@@H](CCCCN)C(=O)N[C@@H](CCC(=O)O)C(=O)N[C@@H](Cc1ccccc1)C(=O)N[C@H](C(=O)N[C@@H](CCC(N)=O)C(=O)N[C@@H](CO)C(=O)O)C(C)C)C(C)C)[C@@H](C)O [GWASKIGTQLGKMAKVGLKEFVQS] | 100 µM (≈ 256 µg/mL) |  |  | 25 µM (≈ 64.1 µg/mL) |
| CC[C@H](C)[C@H](NC(=O)[C@H](CCCCN)NC(=O)[C@H](C)NC(=O)[C@H](CCSC)NC(=O)[C@@H](NC(=O)[C@H](CCCCN)NC(=O)[C@H](CC(C)C)NC(=O)[C@H](Cc1ccccc1)NC(=O)[C@@H](NC(=O)[C@H](CC(=O)O)NC(=O)CNC(=O)[C@H](Cc1c[nH]c2ccccc12)NC(=O)CN)[C@@H](C)O)[C@@H](C)O)C(=O)N[C@@H](C)C(=O)N[C@@H](CCCCN)C(=O)N[C@H](C(=O)NCC(=O)N1CCC[C@H]1C(=O)N[C@@H](CCCCN)C(=O)N[C@@H](CC(C)C)C(=O)N[C@@H](CC(C)C)C(=O)N[C@@H](Cc1cnc[nH]1)C(=O)N[C@@H](CO)C(=O)O)C(C)C [GWGDTFLKTMAKIAKVGPKLLHS] |  |  |  | > 64 µM and 32 µM |
| CSCC[C@H](NC(=O)[C@@H](N)CCCCN)C(=O)N[C@@H](CCCCN)C(=O)N[C@@H](CCCCN)C(=O)N[C@@H](C)C(=O)N[C@@H](CC(C)C)C(=O)N[C@@H](CCC(N)=O)C(=O)N[C@@H](Cc1ccc(O)cc1)C(N)=O [KMKKALQY] | > 100 µM |  | > 100 |  |
| CC(C)C[C@H](NC(=O)[C@H](CO)NC(=O)[C@@H](N)CCCCN)C(=O)N[C@H](C(=O)N[C@@H](CCCN=C(N)N)C(=O)N[C@@H](CCCN=C(N)N)C(=O)N[C@@H](Cc1c[nH]c2ccccc12)C(=O)N[C@@H](CCCN=C(N)N)C(=O)N[C@@H](CO)C(=O)N[C@@H](CCCN=C(N)N)C(=O)N[C@@H](Cc1c[nH]c2ccccc12)C(N)=O)C(C)C [KSLVRRWRSRW] | 30 µM (≈ 45.9 µg/mL) |  | 40 (≈ 61.2 µg/mL) | 30 µM (≈ 45.9 µg/mL) |
| CC(C)C[C@H](NC(=O)[C@H](CCCCN)NC(=O)[C@H](CC(C)C)NC(=O)[C@H](CC(C)C)NC(=O)[C@H](CCCCN)NC(=O)[C@H](CCCCN)NC(=O)[C@H](C)NC(=O)[C@H](CC(C)C)NC(=O)[C@H](CCCCN)NC(=O)[C@H](CC(C)C)NC(=O)[C@H](CC(C)C)NC(=O)[C@H](CCCCN)NC(=O)[C@H](CCCCN)NC(=O)[C@@H](N)CC(C)C)C(=O)N[C@@H](C)C(=O)NCC(=O)O [LKKLLKLAKKLLKLAG] | 5 µM (≈ 8.89 µg/mL) | 5 (≈ 8.89 µg/mL) |  |  |
| CC(C)C[C@H](NC(=O)[C@H](CCCCN)NC(=O)[C@H](C)NC(=O)[C@H](CC(C)C)NC(=O)[C@H](CCCCN)NC(=O)[C@H](CCCCN)NC(=O)[C@H](CC(C)C)NC(=O)[C@H](CC(C)C)NC(=O)[C@H](CCCCN)NC(=O)[C@H](CC(C)C)NC(=O)[C@H](CC(C)C)NC(=O)[C@H](CCCCN)NC(=O)[C@H](CCCCN)NC(=O)[C@@H](N)CC(C)C)C(=O)N[C@@H](C)C(=O)NCC(=O)O [LKKLLKLLKKLAKLAG] | 10 µM (≈ 17.8 µg/mL) | 10 (≈ 17.8 µg/mL) |  |  |
| CC(C)C[C@H](NC(=O)[C@H](Cc1ccccc1)NC(=O)[C@H](C)NC(=O)CNC(=O)[C@H](Cc1c[nH]c2ccccc12)NC(=O)[C@H](CC(N)=O)NC(=O)[C@@H](N)CC(C)C)C(=O)N[C@@H](CCCCN)C(=O)N[C@@H](Cc1cnc[nH]1)C(=O)N[C@@H](Cc1ccccc1)C(=O)N[C@@H](Cc1ccccc1)C(=O)N[C@@H](CCCCN)C(=O)O [LNWGAFLKHFFK] |  |  | 32 (≈ 48.2 µg/mL) |  |
| CC[C@H](C)[C@H](NC(=O)[C@H](C)NC(=O)CNC(=O)[C@H](Cc1c[nH]c2ccccc12)NC(=O)[C@H](CC(N)=O)NC(=O)[C@@H](N)CC(C)C)C(=O)N[C@@H](CCCCN)C(=O)N[C@@H](CCCCN)C(=O)N[C@@H](Cc1cnc[nH]1)C(=O)N[C@H](C(=O)N[C@H](C(=O)N[C@@H](CCCCN)C(=O)O)[C@@H](C)CC)[C@@H](C)CC [LNWGAIKKHIIK] |  |  | 16 (≈ 22.7 µg/mL) |  |
| CC[C@H](C)[C@H](NC(=O)[C@H](Cc1ccc(O)cc1)NC(=O)[C@H](CCC(N)=O)NC(=O)[C@H](CC(C)C)NC(=O)[C@H](C)NC(=O)[C@H](CCCCN)NC(=O)[C@H](CCCCN)NC(=O)[C@@H](N)CCSC)C(=O)N[C@@H](CCCCN)C(=O)N[C@@H](CC(C)C)C(=O)N[C@@H](CC(C)C)C(=O)N[C@@H](CCCCN)C(=O)N[C@@H](CCC(=O)O)C(N)=O [MKKALQYIKLLKE] | > 100 µM |  | > 100 |  |
| CSCC[C@H](NC(=O)[C@H](CCCN=C(N)N)NC(=O)[C@H](Cc1c[nH]c2ccccc12)NC(=O)[C@H](CCC(N)=O)NC(=O)[C@H](Cc1c[nH]c2ccccc12)NC(=O)[C@H](CCCN=C(N)N)NC(=O)[C@@H](N)CCCN=C(N)N)C(=O)N[C@@H](CCCCN)C(=O)N[C@@H](CCCCN)C(=O)O [RRWQWRMKK] | 186 µM (≈ 256 µg/mL) |  |  |  |
| NC(=O)[C@H](CCCN=C(N)N)NC(=O)[C@H](Cc1c[nH]c2ccccc12)NC(=O)[C@H](CCCN=C(N)N)NC(=O)[C@H](Cc1c[nH]c2ccccc12)NC(=O)[C@@H](N)CCCN=C(N)N [RWRWR] | 233 µM (≈ 200 µg/mL) |  | 58.2 (≈ 49.9 µg/mL) | 58.2 µM (≈ 49.9 µg/mL) |
| CC(C)C[C@H](NC(=O)[C@H](Cc1ccccc1)NC(=O)[C@@H]1CCCN1C(=O)[C@H](Cc1c[nH]c2ccccc12)NC(=O)[C@H](Cc1c[nH]c2ccccc12)NC(=O)[C@H](Cc1c[nH]c2ccccc12)NC(=O)[C@H](C)NC(=O)[C@H](Cc1ccccc1)NC(=O)[C@H](CCCCN)NC(=O)[C@H](CCCCN)NC(=O)[C@@H](N)C(C)C)C(=O)N[C@@H](CCCCN)C(=O)N[C@@H](CCCCN)C(N)=O [VKKFAWWWPFLKK] | 32 µM (≈ 56.4 µg/mL) |  |  |  |
| CC(C)C[C@H](NC(=O)[C@H](Cc1ccccc1)NC(=O)[C@@H]1CCCN1C(=O)[C@H](C)NC(=O)[C@H](Cc1c[nH]c2ccccc12)NC(=O)[C@H](Cc1c[nH]c2ccccc12)NC(=O)[C@@H]1CCCN1C(=O)[C@H](Cc1ccccc1)NC(=O)[C@H](CCCN=C(N)N)NC(=O)[C@H](CCCN=C(N)N)NC(=O)[C@@H](N)C(C)C)C(=O)N[C@@H](CCCN=C(N)N)C(=O)N[C@@H](CCCN=C(N)N)C(N)=O [VRRFPWWAPFLRR] | 8 µM (≈ 14.3 µg/mL) |  |  |  |
